This note sets out measurements from ChEMBL document CHEMBL1146673, “Inhibition of ICAM-1/LFA-1-mediated heterotypic T-cell adhesion to epithelial cells: design of ICAM-1 cyclic peptides” (2004).

This experiment has as its system T-cell. In words: Ability of compound to inhibit the T-cell adhesion at 200 uM in cell adhesion assay. It is filed as functional, Homo sapiens.

The substance H-PRGGSV-OH displayed a T-cell binding of 25%.
Turning to H-PSKVIL-OH, the T-cell binding turned out to be 44%.
Next, H-KVILPR-OH: 49%; H-VILARG-OH: 62%.
H-ILPRGG-OH: the T-cell binding came to 46%.
H-VIAPRG-OH registered a T-cell binding of 46%.
Next, H-LPRGGS-OH: 37%; H-VALPRG-OH: 71%; H-VILPRA-OH: 68%.
H-VILPRG-OH returned a T-cell binding of 32%.
With H-AILPRG-OH, the T-cell binding was determined as 53%.
